Data on one compound can be found in publication PMC3921447, “Homologous and heterologous desensitization of guanylyl cyclase-B signaling in GH3 somatolactotropes” (Cell and Tissue Research, 2013).

SMILES strings stand for the structures.

The subject of one experiment is GC-A and GC-B receptors. The conditions noted are these: prolonged exposure; ref Fan et al. [2005]; Dickey et al. [2011]; cited from earlier work. An excerpt:
Pharmacological regulation of the GC-B receptor has been elegantly described through many studies by Potter and Hunter ([1998a], [1999]) who have shown that dephosphorylation of specific serine and threonine residues of the GC-B receptor leads to rapid homologous desensitization. In keeping with the extensive literature describing the regulation of GC-A receptors (Potter et al. [2006]), enhancement of protein kinase C (PKC) activity leads to heterologous desensitization (Potter and Hunter [2000]).

In the next experiment the target is T1, GC-A (Rattus norvegicus, UniProt P18910).
T1 construct: Evidence of homologous desensitization of endogenous GC-A- and GC-B-mediated signaling in GH3 cells; endogenous in cells; host or cells: GH3 rat somatolactotrope cells
T1 sequence (P18910 29-1057): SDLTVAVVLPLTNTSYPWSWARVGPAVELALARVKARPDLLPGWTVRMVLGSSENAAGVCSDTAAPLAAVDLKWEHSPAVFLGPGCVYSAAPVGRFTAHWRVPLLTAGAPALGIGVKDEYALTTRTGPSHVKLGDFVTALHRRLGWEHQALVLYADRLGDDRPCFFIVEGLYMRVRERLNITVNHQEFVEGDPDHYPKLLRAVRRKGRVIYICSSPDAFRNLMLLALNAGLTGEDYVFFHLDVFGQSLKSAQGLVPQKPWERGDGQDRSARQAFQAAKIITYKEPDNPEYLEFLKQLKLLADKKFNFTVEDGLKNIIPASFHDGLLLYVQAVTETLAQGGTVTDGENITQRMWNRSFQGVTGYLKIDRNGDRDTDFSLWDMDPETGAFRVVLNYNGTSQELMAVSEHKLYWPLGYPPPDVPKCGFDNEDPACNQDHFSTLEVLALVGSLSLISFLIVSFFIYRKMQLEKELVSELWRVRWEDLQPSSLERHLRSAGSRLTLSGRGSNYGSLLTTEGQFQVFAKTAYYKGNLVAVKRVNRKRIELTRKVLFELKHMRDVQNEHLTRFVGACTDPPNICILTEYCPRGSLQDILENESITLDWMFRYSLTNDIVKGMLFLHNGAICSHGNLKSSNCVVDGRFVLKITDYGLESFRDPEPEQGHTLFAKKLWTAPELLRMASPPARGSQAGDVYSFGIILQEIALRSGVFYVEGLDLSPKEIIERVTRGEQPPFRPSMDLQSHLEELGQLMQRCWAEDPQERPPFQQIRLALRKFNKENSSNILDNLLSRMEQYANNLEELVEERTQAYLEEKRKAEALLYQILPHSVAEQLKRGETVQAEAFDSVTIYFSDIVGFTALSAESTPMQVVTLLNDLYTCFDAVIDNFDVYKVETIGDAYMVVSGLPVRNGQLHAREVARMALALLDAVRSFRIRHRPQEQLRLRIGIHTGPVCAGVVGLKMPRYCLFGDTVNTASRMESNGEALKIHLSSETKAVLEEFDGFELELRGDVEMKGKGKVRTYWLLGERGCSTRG
As to the kind of experiment: Effect of natriuretic peptide pre-treatment on ANP-stimulated (GC-A) cGMP accumulation in GH3 cells. Format: cell-based. Conditions: 100 nM CNP pre-treatment 6 h, then 100 nM ANP plus 1 mM IBMX 15 min; Fig. 3d; ns, P > 0.05. Here is the method: Having established that GC-B signaling but not that of GC-A receptors, underwent rapid homologous desensitization, we next examined the effect of prolonged exposure of each receptor to its specific ligand. GH3 cells pre-treated with either ANP or CNP for 0 (control) to 6 h reduced the response to a subsequent 15-min treatment of ANP or CNP (with IBMX). […] The amount of cGMP measured from the 15-min pre-treatment sample was reduced by 39.6 ± 0.002 % (***P < 0.001). This effect was maintained up to the 6-h pre-treatment with CNP, which was reduced by 37.9 ± 7.1 % compared with the control (***P < 0.001).
Fig. 3 Effect of chronic exposure to CNP and ANP on GC-B- and GC-A-dependent cGMP accumulation in GH3 cells. Cells were initially treated with (a) 100 nM CNP or (b) 100 nM ANP in PSS without IBMX for 0 to 6 h. The medium was removed and replaced with 100 nM CNP (a) or 100 nM ANP (b) for 15 min in the presence of 1 mM IBMX. […]
In similar experiments designed to examine the effect of ANP pre-exposure to GC-A activity, a significant reduction in cGMP accumulation was observed within 30 min of ANP pre-treatment (by 28.9 ± 3.1 % compared with the control, *P < 0.05). […] In order to test the receptor specificity of the observed down-regulation of GC-B upon pre-treatment with CNP and of GC-A upon pre-treatment with ANP, the effects of ANP on GC-B and CNP on GC-A desensitization were determined. […]

With `CC[C@H](C)[C@@H]1NC(=O)[C@H](CCCNC(=N)N)NC(=O)[C@H](CC(=O)O)NC(=O)[C@H](CC(C)C)NC(=O)[C@H](CCCCN)NC(=O)[C@H](CC(C)C)NC(=O)CNC(=O)[C@H](Cc2ccccc2)NC(=O)[C@@H](NC(=O)CNC(=O)[C@H](CCCCN)NC(=O)[C@H](CO)NC(=O)[C@H](CC(C)C)NC(=O)CN)CSSC[C@@H](C(=O)O)NC(=O)CNC(=O)[C@H](CC(C)C)NC(=O)CNC(=O)[C@H](CO)NC(=O)[C@H](CCSC)NC(=O)[C@H](CO)NC(=O)CNC1=O` [CNP, C-type natriuretic peptide], the agonist-induced internalization result with GC-A and GC-B receptors is recorded as “does not appear to cause agonist-induced internalization”. For the same compound, the “ANP-stimulated cGMP after CNP pre-treatment vs control” value at GC-A was “not significantly different from the control samples”.
